Melting point data for 88 compounds are collected here from a melting point compilation (Tetko et al.; mined from patent text by program, amines drawn as free bases though some values may be those of a salt).

SMILES strings stand for the structures.

In general, melting point refers to the temperature of the solid-liquid transition. `COc1cccc(C2=C(CN(C)C)COc3ccccc32)c1` registered a melting point of 68 to 71 °C.

On to `CCCCOc1nc(-c2ccc(=O)n(C(C)C)n2)c(-c2ccccc2)nc1N`, for which the melting point lay within 130 to 132 °C.

Turning to `CC(C)(C)OC(=O)CN1CCC(CNC(=O)c2cc(Cl)c(N)[nH]c2=O)CC1`, the melting point fell in the range of 200 to 203 °C.

The compound `CCCCCCCCCCC[C@@H](C[C@@H]1OC(=O)[C@H]1CCCCCC)OC(=O)CC(=O)NC(C)C` displayed a melting point of 59 °C.

Regarding `O=C(O)c1ccc(-c2nc(-c3ccccc3)ccc2Cl)cc1`, the melting point was in the range of 254 to 255 °C.

With `CC(=O)Nc1[nH]cc(-c2ccc(NS(=O)(=O)c3cccc(Cl)c3Cl)cc2)c1C(N)=O`, the melting point was found to be 265 °C.

As for `O=[N+]([O-])c1cc(Cl)c(Oc2ccc(Cl)c3ccccc23)c(Cl)c1`, the melting point fell in the range of 145 to 147 °C.

Take `Cc1oc2c(-c3ccc(F)cc3)c(-c3ccc(S(C)(=O)=O)cc3)nn2c1-c1ccc(Cl)s1`: the melting point lay in the range of 222 to 223 °C.

`COc1ccc(CCC(=O)C2C(=O)NC(=O)NC2=O)cc1` returned a melting point of 248 to 250 °C.

Turning to `O=CNCC1c2cccc3c2N(CC3)c2ccccc2N1C=O` (stereo not drawn), the melting point lay in the range of 201 to 202 °C.

Take `O=C1c2ccccc2C(=O)c2sc(-c3cccnc3)nc21`: the melting point stood at 256 °C.

In turn, `CC1(C)Cc2sc(C(=O)O)cc2C1=O` registered a melting point of 124 to 125 °C.

As to `CN(C)[C@H]1CCN(c2c(-c3ccccc3)cc(C#N)c3oc(C(C)(C)C)cc23)C1`, the melting point lay in the range of 46 to 48 °C.

For `Cn1c(C(=O)O)c(Br)c2cc(OCc3ccccc3)ccc21`, the melting point worked out at 210 °C.

For `CCOc1cc2c(Nc3cc(OC)c(Cl)cc3Cl)c(C#N)cnc2cc1N`, the melting point lay within 230 to 233 °C.

In turn, `COc1cc(OCC(=O)O)cc(C)c1SCc1sc(-c2ccc(C(F)(F)F)cc2)nc1C` registered a melting point of 164 to 165 °C.

In turn, `COC(=O)c1ccc(-c2cccc(OC)c2)nc1` yielded a melting point of 89.5 to 90 °C.

For the compound `Cc1cc2c(c3ccc(=O)[nH]c13)OC(CNC(=O)CN(C)C)C2` (stereo not drawn), the melting point is above 250 °C.

`COc1ccc(C2(C)C=C(Cl)N=CN2)cc1` (stereo not drawn) yielded a melting point of 65 to 67 °C.

Turning to `CSCC[C@@H](NC(=O)[C@H](Cc1ccc(O)cc1)NC(=O)OC(C)(C)C)C(=O)NCC(=O)Oc1c(Cl)c(Cl)c(Cl)c(Cl)c1Cl`, the melting point fell in the range of 175 to 176 °C.

For `CCCCCCCCCCCCCCCCCCNC(=O)OCC(CNS(=O)(=O)CCCCl)NC(=O)NC` (stereo not drawn), the melting point lay in the range of 87 to 90 °C.

Compound `O=C(NCCn1cc(Cn2ccnc2)c2ccccc21)Nc1ccccc1` yielded a melting point of 198 to 199 °C.

`CS(=O)c1cc(Cl)c(C=O)c(Cl)c1` (stereo not drawn): the melting point lay in the range of 100 to 102 °C.

The compound `O=C(O)COc1cccc2cc(COCC(c3ccccc3)c3ccccc3)oc12` registered a melting point of 141 to 142 °C.

Take `COc1cc(C(=O)OC(C)C)cc(OC)c1Cc1cnc(N)nc1N`: the melting point is 209 to 213 °C.

Turning to `COC(=O)C1OC(Oc2ccc(C=O)cc2[N+](=O)[O-])C(OC(C)=O)C(OC(C)=O)C1OC(C)=O` (stereo not drawn), the melting point is 180 to 182 °C.

`O=C(CCC(=O)N1CCC[C@H]1C(=O)O)[C@H](Cc1ccccc1)OCc1ccccc1`: the melting point fell in the range of 114 to 115 °C.

Compound `Cn1cccc1-c1nc2c(N[C@H]3[C@@H](C(N)=O)[C@@H]4C=C[C@H]3C4)c(Br)cnc2[nH]1` came in with a melting point of 293 to 295 °C.

In turn, `Cc1c(C(=O)C(N)=O)c2c(OCC(=O)O)cc3c(c2n1Cc1ccccc1)CCC3` returned a melting point of 255 to 257 °C.

Take `COc1ccccc1C1CC(=O)Oc2ccc(Cl)cc21` (stereo not drawn): the melting point lay within 172 to 173 °C.

`CCCCC[C@H]1CC[C@H](c2ccc(-c3ccc(CCc4ccc(OCC)cc4)cc3)cc2F)CC1` gave a melting point of 133 °C.

Compound `O=Cc1ccc(O)c(CP(=O)(O)O)c1` displayed a melting point of 252 to 253 °C.

The compound `CCOC(=O)C1CCCN2CCC3c4cc(Cl)ccc4NC3C12` (stereo not drawn) registered a melting point of 124 °C.

Consider `Cn1nc(C(F)(F)F)c(CS(=O)(=O)C2=NOC(C)(C)C2)c1Oc1ccccc1Cl`, for which the melting point lay within 67 to 70 °C.

`CCCCCCCCCC/C=C\COCc1ccc(CCC(=O)O)cc1` had a melting point of 35 to 36 °C.

The compound `O=C1Cc2cccc(C(=O)c3ccc(F)cc3)c2N1` came in with a melting point of 185 to 187 °C.

`CC(=O)NCCCSc1c(Cc2cccc3ccccc23)sc2c1c(=O)n(C)c(=O)n2CC(C)C` returned a melting point of 114 to 117 °C.

`NC(=NCC(F)(F)F)Nc1ccnc(OCCCCO)n1.[H][H]` displayed a melting point of 189 to 190 °C.

For `COc1nc(NC(=O)NS(=O)(=O)c2cccc3c2CCCC3)nc(OC)n1`, the melting point lay in the range of 171 to 173 °C.

For the compound `NC1c2ccccc2-c2[nH]c(=O)c3nccn3c21` (stereo not drawn), the melting point stood at 240 °C.

Consider `COCCCc1cc(N(C)Cc2ccc(-c3ccc(C(F)(F)F)cc3)nc2C)ccc1OCC(=O)O`, for which the melting point was 72 to 73 °C.

Take `CS(=O)(=O)Nc1ccc([N+](=O)[O-])cc1OC1CCSCC1`: the melting point was 200 °C.

Compound `COc1cc(Nc2c(C#N)cnc3c(Br)csc23)c(Cl)cc1Cl` showed a melting point of 265 to 266 °C.

Compound `Cn1nnc2c(N)cc3nc(O)c(O)nc3c21` had a melting point above 300 °C.

As to `CCCCCCCCCCCCc1cc(CC(=O)Nc2c(OC)cc(OC)cc2OC)on1`, the melting point lay within 107 to 109 °C.

`O=C1c2ccccc2C(=O)N1c1cccc(CBr)n1` gave a melting point of 169 to 170 °C.

`CC(=O)N1CCC(c2ccc3c(c2OCc2ccccc2)CCCC3)CC1`: the melting point fell in the range of 108 to 110 °C.

On to `COc1ccccc1Cc1n[nH]c2c1c(=O)n(-c1cccc(C(F)(F)F)c1)c1ncccc21`, for which the melting point was in the range of 229 to 231 °C.

As for `CCc1ccc2oc(=O)c([N+](=O)[O-])c(O)c2c1`, the melting point lay within 114 to 115 °C.

As for `CC(C)(C)C(=O)NCCc1cccs1`, the melting point is 79 to 80 °C.

With `CC#CCOc1ccc(SC(C(=O)NO)c2cccc(Cl)c2)cc1` (stereo not drawn), the melting point was 127 °C.

`CCOC(=O)C(Cl)C(=O)Nc1ccc(Cl)cc1` (stereo not drawn) registered a melting point of 104 to 105 °C.

`COc1cc(COc2cccc(S(=O)(=O)c3ccc(C)nc3Nc3c(C)cc(C)cc3C)c2)cc(OC)c1`: the melting point is 120 to 121 °C.

With `O=Cc1c[nH]c(-c2ccccc2)c1`, the melting point is 136 to 137 °C.

In turn, `Cc1ccc2cc(C(=O)NCCSC(c3ccccc3)(c3ccccc3)c3ccccc3)[nH]c2c1NS(=O)(=O)c1cccs1` yielded a melting point of 245 to 246 °C.

Take `O=C(O)CCCCc1cn(-c2cccnc2)c2ccccc12`: the melting point is 122 to 124 °C.

Take `CCN(CC)C(=O)n1ccc(S(=O)(=O)c2ccc(C)c(C)c2)n1`: the melting point lay within 85 to 86 °C.

The compound `CCCn1c(=Nc2ccc([N+](=O)[O-])cc2)sc2ncccc2c1=O` had a melting point of 112 to 113 °C.

The compound `CCCc1c(OCCCCOc2ccc(Sc3ccccc3CC(=O)O)cc2)ccc(C(C)=O)c1O` yielded a melting point of 76 to 78 °C.

Consider `CC1=C(C(=O)OCCN(C)Cc2ccccc2)C(c2ccccc2C#N)c2c(ccnc2OC(C)C)N1` (stereo not drawn), for which the melting point fell in the range of 120 to 122 °C.

Consider `Nc1ncnc2c1c(-c1ccc(Oc3ccccc3)cc1)cn2C1CCC(O)CC1` (stereo not drawn), for which the melting point lay within 199 to 200 °C.

`Cc1oc(-c2ccccc2)nc1CCCc1ccc(CCCC2OC(=O)NC2=O)cc1` (stereo not drawn) gave a melting point of 119 to 120 °C.

`CN(C(=O)c1cnc2c(C(F)(F)F)cccc2c1-c1ccccc1)c1ccccc1` gave a melting point of 188 to 190 °C.

With `O=C(CCCCCOc1ccc(OCc2ccccc2)cc1)C(F)(F)F`, the melting point is 59 to 60 °C.

Take `O=C(OCc1ccccc1)c1ccc(OCc2cccc(COc3ccc(C(=O)OCc4ccccc4)cc3)c2)cc1`: the melting point lay within 92.5 to 93.8 °C.

Compound `COC(=O)C(C)Oc1noc2cc(Cl)c([N+](=O)[O-])cc12` (stereo not drawn) came in with a melting point of 98 to 101 °C.

Regarding `COc1cccc(N2CCN(C(=O)NCCN(C)C)CC2)c1`, the melting point is 70 to 72 °C.

Compound `CCOP(=O)(OCC)C1(P(=O)(OCC)OCC)CC(C(=O)C(C)c2ccc(-c3ccccc3)c(F)c2)=NN1` (stereo not drawn) had a melting point of 109 to 110 °C.

`Cc1cc(C)c(-c2n[nH]c(=O)c3ccccc23)c(C)c1`: the melting point lay in the range of 259 to 262 °C.

As for `O=C(Cc1ccccc1)Nc1ccccc1OCc1ccccc1`, the melting point is 96 to 98 °C.

The compound `Nc1ncc(S(=O)c2ccncc2)s1` (stereo not drawn) displayed a melting point of 193 to 195 °C.

Compound `CC12CCC3C4CCC(=O)C=C4CCC3C1CCC2C(F)F` (stereo not drawn) came in with a melting point of 102 to 103 °C.

Consider `Cn1ncc2c1CSc1cn[nH]c1-2`, for which the melting point is 224 to 226 °C.

In turn, `CCCN1CC(c2cccc(Cl)c2)=C(c2ccc(S(N)(=O)=O)cc2)C1=O` came in with a melting point of 149 to 150 °C.

`Cc1ccccc1Oc1cccc(C(N)C(=O)O)c1O` (stereo not drawn) showed a melting point of 170 to 173 °C.

For the compound `CCCCCCCCCCCCCCC(NC(C)=O)(C(=O)OCC)C(=O)OCC`, the melting point lay within 58.5 to 60.5 °C.

Turning to `O=C(Nc1ccc(C(F)(F)F)cc1)Nc1cccc(S(=O)(=O)Nc2ccc(Cl)cc2)c1`, the melting point was 196 to 198 °C.

In the case of `O=C(O)CNC(=Nc1ccccc1)NC1CCCCC1`, the melting point lay within 160 to 165 °C.

Compound `CN(C)C1CCN(C2c3ccccc3Oc3ccccc32)CC1` displayed a melting point of 92 to 93 °C.

`CC1(C)CC(N2C(=O)c3ccc(C(=O)OCC(O)c4ccccc4)cc3C2=O)CC(C)(C)N1` (stereo not drawn) displayed a melting point of 144 to 146 °C.

Consider `CCOC(=O)c1c(CI)nc2cc(OC)c(OC)cc2c1-c1ccc(OC)c(OC)c1`, for which the melting point lay within 170 to 171 °C.

`COc1cc(C=CC(=O)Nc2cnc3cc(C)c(C)cc3c2-c2ccccc2Cl)cc(OC)c1O` came in with a melting point of 278 to 280 °C.

As to `Cc1nc2ncnn2c2c1CCN2C1CCCCCC1`, the melting point was in the range of 197 to 198 °C.

Take `O=C1N=NC(=O)c2c1[nH]c1cc(I)ccc21`: the melting point is above 250 °C.

Take `CC1CCC2(C)C(=CCC3C4CCC(=O)C4(C)CCC32)C1` (stereo not drawn): the melting point was in the range of 148 to 150 °C.

`COC(=O)C(=O)c1sccc1COc1ccccc1`: the melting point lay within 98 to 99 °C.

For `Cc1oc2ccc(S(=O)(=O)C[N+](=O)[O-])cc2c(=O)c1C`, the melting point was in the range of 206 to 209 °C.

`CCn1nc2c(n1)C(N1CCN(C)CC1)=Nc1cc(Cl)ccc1N2` displayed a melting point of 180 to 182 °C.
